Experimental data: patent publication EP4813990A1, “COMPOUND FOR TREATING CANCER” (INNOLAKE BIOPHARMA (HANGZHOU) CO., LTD., priority 2023, dated 2025)

How the values were obtained:
[1] = system: CYP3A, CYP2B6, CYP2C8, CYP2C9, CYP1A2, CYP2C19 and CYP2D6; test: Metabolic enzyme phenotyping for production of metabolite M4; type: in vitro ADME
[2] = Single-dose toxicity study in rats; settings: Sprague-Dawley, rat, in vivo, po; SD rats, single intragastric administration, observed for 14 days; read-out: maximum tolerated dose (MTD)
Experimental: (§1) In accordance with the relevant requirements of the Good Laboratory Practice for Non-clinical Drug Studies issued by the National Medical Products Administration of the People's Republic of China, and following the test protocol and revisions, the safety pharmacology test, single-dose toxicity, genetic toxicity, etc. of ILB-2109 were explored.
SD rats were given single intragastric administration of ILB-2109 and observed for 14 days. The single doses were 0 (vehicle), 500, 1000 and 2000 mg/kg ILB-2109. […] No abnormalities were found in body weight, food consumption, clinical examination and gross anatomy. Under the test conditions, the maximum tolerated dose (MTD) of ILB-2109 in rats was 2000 mg/kg.

[3] = system: Caco-2 cells; test: Caco-2 permeability; type: in vitro ADME
[4] = Plasma protein binding; type: in vitro ADME; settings: one range given for CD-1 mice, Sprague-Dawley rats, Beagle dogs and cynomolgus monkeys
[5] = Single-dose toxicity study in cynomolgus monkeys; settings: cynomolgus monkey, in vivo, po, single intragastric administration within 24 h, observed 14 days, read-out: maximum tolerated dose (MTD)
Experimental: as §1
Cynomolgus monkeys were given single intragastric administration of 0 (vehicle), 250, 500 and 1000 mg/kg ILB-2109 and observed continuously for 14 days after single administration. […] Within 30 min ~ 4 h after administration on the day of administration, mild vomiting (a small amount of food-like vomit) occurred in medium and high-dose groups. No abnormalities were found in body weight, food consumption, body temperature, respiration, electrocardiogram, blood routine, ophthalmic examination, clinical examination, bone marrow and gross anatomy. Under the test conditions, the maximum tolerated dose (MTD) of cynomolgus monkeys given single intragastric administration of ILB-2109 within 24 h was 1000 mg/kg. The test substance had effects on digestive system (gastrointestinal function, liver function).

[6] = target: A2b receptor (Homo sapiens, UniProt P29275); test: Adenosine receptor selectivity, A2aR compared with A2b; type: binding
Sequence of A2b receptor (P29275 whole entry): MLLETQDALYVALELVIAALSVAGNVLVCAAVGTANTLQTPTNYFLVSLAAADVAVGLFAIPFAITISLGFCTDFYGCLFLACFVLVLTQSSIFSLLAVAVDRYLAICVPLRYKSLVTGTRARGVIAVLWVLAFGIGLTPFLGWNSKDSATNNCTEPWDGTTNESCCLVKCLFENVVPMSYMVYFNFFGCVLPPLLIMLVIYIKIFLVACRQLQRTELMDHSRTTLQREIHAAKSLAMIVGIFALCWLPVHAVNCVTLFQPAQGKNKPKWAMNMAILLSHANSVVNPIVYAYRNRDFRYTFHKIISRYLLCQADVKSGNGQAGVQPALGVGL
Excerpt: Meanwhile, ILB-2109 had high selectivity for A2aR (compared with A1, A2b and A3 receptors, the selectivity was 18.9 times, 40.7 times and 3424.7 times respectively).

[7] = 4-week repeated-dose toxicity test in cynomolgus monkeys; type: in vivo
Excerpt: as §1
40 cynomolgus monkeys (half male and half female) were randomly divided into 4 groups with 5 animals per gender in each group, and given intragastric administration of 0 (vehicle), 20, 60 and 200 mg/kg/day ILB-2109 once a day for 28 consecutive days. […] Combined with gross observation and histopathological examination results, the cause of animal death was considered to be related to lung injury. […] All the above changes completely recovered during the recovery period. In addition, no drug-related changes were found in body temperature, respiration, electrocardiogram, ophthalmic examination and bone marrow. There was no gender difference in systemic exposure in each dose group; no obvious accumulation; the increase ratio of systemic exposure was lower than the increase ratio of dose.
Attention should be paid to the potential impact of ILB-2109 on respiratory system, blood system, endocrine system and other systems in clinical use.

[8] = 4-week repeated-dose toxicity test in rats; parameters: species or system SD rats; settings: Sprague-Dawley, rat, in vivo
Experimental: as §1
SD rats were given continuous intragastric administration of ILB-2109 at doses of 0 (vehicle), 60, 200 and 600 mg/kg for 28 consecutive days. […] WBC and #LYMPH increased or tended to increase in medium and high-dose groups; GLU decreased or tended to decrease in medium and high-dose groups; CREA and UREA increased or tended to increase in female high-dose group; GLOB increased and A/G decreased in female animals of each dose group. […] All the above changes completely recovered during the recovery period. […] ILB-2109 may have toxic effects on digestive system (liver function), blood system (granulocyte series) and urinary system (renal function) of SD rats, which can be reversed at the end of the recovery period.

[9] = Cynomolgus monkey absorption test (pharmacokinetics); type: in vivo, cynomolgus monkeys; settings: for Cmax: read-out: peak concentration (Cmax)
Experimental: According to the Technical Guidelines for Non-clinical Pharmacokinetic Studies of Drugs and the results of in vitro metabolic species difference studies, liquid chromatography-tandem mass spectrometry (LC-MS/MS) was used in this pharmacokinetic study to fully verify the analytical method for the determination of ILB-2109 content in plasma (EDTA-K2 anticoagulation) of Sprague-Dawley rats and cynomolgus monkeys. The linear range of the method was 20.0~20000 nM. The precision, accuracy and other indicators of the method were confirmed to comply with the relevant regulations of biological sample detection.
This experiment studied the pharmacokinetic properties of ILB-2109 in female and male cynomolgus monkeys, including 1) 3 mg/kg single intravenous injection administration study; 2) 3, 15 and 60 mg/kg oral dose escalation study; 3) 15 mg/kg oral administration BID for 7 consecutive days.

[10] = female, cynomolgus monkey, in vivo, 20 mg/kg
[11] = female, cynomolgus monkey, in vivo, 60 mg/kg
[12] = male, cynomolgus monkey, in vivo, 20 mg/kg
[13] = male, cynomolgus monkey, in vivo, 60 mg/kg
[14] = both sexes, cynomolgus monkey, plasma, po, 3 mg/kg, cynomolgus monkeys, single oral 3 mg/kg
[15] = both sexes, cynomolgus monkey, plasma, po, 15 mg/kg, cynomolgus monkeys, oral 15 mg/kg twice a day for 7 days, Day 1
[16] = both sexes, cynomolgus monkey, plasma, po, 15 mg/kg, cynomolgus monkeys, oral 15 mg/kg twice a day for 7 days, Day 7
[17] = both sexes, cynomolgus monkey, plasma, po, 15 mg/kg, cynomolgus monkeys, single oral 15 mg/kg
[18] = both sexes, cynomolgus monkey, plasma, po, 60 mg/kg, cynomolgus monkeys, single oral 60 mg/kg

Cc1cc(-c2c(-c3ccccc3)nc(N)n3nc(CO)nc23)cc(C(F)(F)F)n1 [ILB-2109]
role of CYP2B6, CYP2C8 and CYP2C9 in production of metabolite M4 [1]: may play a secondary role
role of other isoenzymes (CYP1A2, CYP2C19 and CYP2D6) in production of metabolite M4 [1]: little or no effect
MTD at 14 days [2]: 2000 mg/kg
efflux transporter substrate ([3]; Caco-2 cells): most likely a substrate of efflux transporters
permeability in Caco-2 cells ([3]; according to existing classification standards): high permeability
binding rate in plasma [4]: 87.3%-95.0%
MTD at 14 days [5]: 1000 mg/kg
selectivity for A2aR compared with A2b receptor [6]: 40.7 times
NOAEL at 28 days ([7]; both sexes, cynomolgus monkey, in vivo, po): 20 mg/kg
mortality ([7]; cynomolgus monkeys, high-dose group 200 mg/kg/day, death considered related to lung injury): 1 male animal in the high-dose group was found dying 2 h after administration on D3
HNSTD ([7]; cynomolgus monkeys, intragastric once a day, 28 consecutive days): 60 mg/kg
AUC(0-t) [7, 10]: 61 µg·h/mL
Cmax [7, 10]: 5010 ng/mL
AUC(0-t) [7, 11]: 149 µg·h/mL
Cmax [7, 11]: 11900 ng/mL
AUC(0-t) [7, 12]: 80.2 µg·h/mL
Cmax [7, 12]: 6580 ng/mL
AUC(0-t) [7, 13]: 206 µg·h/mL
Cmax [7, 13]: 14300 ng/mL
AUC(0-t) ([8]; oral, female SD rats, 600 mg/kg (MTD), 4-week study, read-out: AUC0-24h): 725 µg·h/mL
Cmax ([8]; oral, female SD rats, 600 mg/kg (MTD), 4-week study, read-out: Cmax): 69400 ng/mL
AUC(0-t) ([8]; oral, male SD rats, 600 mg/kg (MTD), 4-week study, read-out: AUC0-24h): 481 µg·h/mL
Cmax ([8]; oral, male SD rats, 600 mg/kg (MTD), 4-week study, read-out: Cmax): 36300 ng/mL
NOAEL at 28 days ([8]; both sexes, po): 60 mg/kg
MTD at 28 days ([8]; both sexes, po, SD rats, intragastric, 28 consecutive days): 600 mg/kg
AUC(0-t) ([8]; female, 60 mg/kg): 296 µg·h/mL
Cmax ([8]; female, 60 mg/kg): 22200 ng/mL
AUC(0-t) ([8]; male, 60 mg/kg): 114 µg·h/mL
Cmax ([8]; male, 60 mg/kg): 15900 ng/mL
AUC(0-t) ([9]; both sexes, cynomolgus monkey, plasma, iv, 3 mg/kg, female and male cynomolgus monkeys, single intravenous injection 3 mg/kg): 39.5 ± 5.27 µM·h
AUC(0-t) [9, 14]: 35.2 ± 6.87 µM·h
Cmax [9, 14]: 8.19 ± 1.81 µM
AUC(0-t) [9, 15]: 172 ± 34.4 µM·h
Cmax [9, 15]: 18.2 ± 4 µM
AUC(0-t) [9, 16]: 268 ± 42.5 µM·h
Cmax [9, 16]: 28.3 ± 4.78 µM
AUC(0-t) [9, 17]: 192 ± 51.6 µM·h
Cmax [9, 17]: 33.9 ± 9.66 µM
AUC(0-t) [9, 18]: 571 ± 254 µM·h
Cmax [9, 18]: 59.3 ± 33.3 µM
bioavailability ([9]; both sexes, cynomolgus monkey, plasma, cynomolgus monkeys, 3 mg/kg oral dose group): 89.1%
half-life ([9]; both sexes, cynomolgus monkey, plasma, female and male cynomolgus monkeys, single intravenous injection 3 mg/kg, read-out: elimination half-life (T1/2) (converted)): 4.33 ± 0.75 h
clearance ([9]; both sexes, cynomolgus monkey, plasma, female and male cynomolgus monkeys, single intravenous injection 3 mg/kg, read-out: plasma clearance rate (CL)): 3.13 ± 0.361 mL/min/kg
Vd ([9]; both sexes, cynomolgus monkey, plasma, female and male cynomolgus monkeys, single intravenous injection 3 mg/kg, read-out: steady-state apparent volume of distribution (Vd)): 0.867 ± 0.141 L/kg
gender difference in systemic exposure (AUC0-last and Cmax) ([9]; cynomolgus monkeys, each oral dose): no significant gender difference
accumulation of systemic exposure ([9]; cynomolgus monkeys, oral 15 mg/kg twice a day for 7 consecutive days): no obvious accumulation of systemic exposure
peak time ([9]; cynomolgus monkeys, oral 15 mg/kg twice a day for 7 days): 3.00 ± 1.10 h
dose proportionality of systemic exposure (AUC0-last) ([9]; cynomolgus monkeys, oral dose 3 to 60 mg/kg): increased basically proportionally to the dose
peak time ([9]; cynomolgus monkeys, single oral 3 mg/kg): 1.33 ± 0.516 h
peak time ([9]; cynomolgus monkeys, single oral 15 mg/kg): 2.00 ± 1.10 h
peak time ([9]; cynomolgus monkeys, single oral 60 mg/kg): 4.00 ± 2.19 h
